Molecular target: T1, N-acylethanolamine-hydrolyzing acid amidase (Homo sapiens, UniProt Q02083)
T1 sequence (Q02083 whole entry): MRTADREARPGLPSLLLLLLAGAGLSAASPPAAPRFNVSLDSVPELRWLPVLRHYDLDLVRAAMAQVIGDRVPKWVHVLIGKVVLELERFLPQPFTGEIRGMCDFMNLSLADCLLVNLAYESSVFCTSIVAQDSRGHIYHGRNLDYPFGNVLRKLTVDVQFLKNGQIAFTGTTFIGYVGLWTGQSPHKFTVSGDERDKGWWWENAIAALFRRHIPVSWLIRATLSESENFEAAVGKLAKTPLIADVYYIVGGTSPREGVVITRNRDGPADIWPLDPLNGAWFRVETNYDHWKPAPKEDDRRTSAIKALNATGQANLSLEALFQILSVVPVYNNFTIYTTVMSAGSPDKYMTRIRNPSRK
Assay: ChEBML_1558887
Protocol: Inhibition of human NAAA expressed in HEK293 cells preincubated for 10 mins followed by N-(4-methyl-2-oxo-chromen-7-yl)-hexadecanamide substrate addition for 30 mins by microplate reader analysis

## COc1ccc(CCCCOC(=O)N[C@H]2CNC2=O)cc1
  IC50: 520 nM

Source: BindingDB's records for doi:10.1016/j.ejmech.2016.01.046 (Italian Institute of Technology, 2016)
